As usually defined, the melting point is the temperature, or range, at which the solid turns liquid. As usually defined, the boiling point is the temperature at which the vapour pressure of the liquid equals the pressure above it.

Details in one data set: not given
Consider `FC(F)(F)C(F)(F)C(F)(F)C(F)(F)C(F)(F)C(F)(F)C(F)(F)C(F)(F)C(F)(F)C(F)(F)C(F)(F)C(F)(F)C(F)(F)C(F)(F)C(F)(F)C(F)(F)C(F)(F)C(F)(F)C(F)(F)C(F)(F)C(F)(F)C(F)(F)C(F)(F)C(F)(F)F`, for which the melting point stood at 189 °C.
Same read-out and setting: in the case of `Cc1cc(NS(=O)(=O)c2ccc(N)cc2)sn1` it was 192 °C.
Take `Nc1ccccc1N`: the boiling point came to 257 °C, the log10 vapour pressure (mmHg) was -2.69, the melting point stood at 102 °C and the ready biodegradability entry is on record as “not readily biodegradable”.
With `O=C1NCCN1`, the melting point was 131 °C.
On to `FC(F)(Cl)Cl`, for which the boiling point was -29.8 °C, the log10 Henry constant (atm·m³/mol) is -0.465, the log10 vapour pressure (mmHg) turned out to be 3.69 and the melting point is -158 °C. Further, the ready biodegradability result was “not readily biodegradable”.
Molecule `CCOCCOC(C)(C)C` displayed a boiling point of 148 °C.
The molecule `CCCCc1cc2c(=O)c(C(=O)OC)c[nH]c2cc1OCc1ccccc1` had a melting point of 288 °C.
For `CC1CCOS(=O)O1` (stereo unspecified), the boiling point worked out at 185 °C and the melting point was 5 °C.
Turning to `O=C(O)/C(=C\c1ccccc1)c1ccccc1`, the melting point was determined as 172 °C.
Still for that read-out and setting: in the case of `O=C(O)c1ccc(C(=O)O)s1` it was 359 °C.
Still for that read-out and setting: in the case of `NC(=O)NC(=O)Cc1ccccc1` it was 215 °C; in that of `COc1c(OC)c(OC(C)=O)c2c(OC)cccc2c1OC(C)=O`, 69.5 °C; in that of `N#Cc1ccc(Cl)cc1N`, 161 °C.
As to `CN(C)CCc1c[nH]c2ccccc12`, the melting point came to 46 °C.
Take `CC(=O)Oc1ccc(C)cc1`: the boiling point was determined as 212 °C.
`CCC(=O)C1(c2cccc(O)c2)CCN(C)CC1` registered a melting point of 156 °C.
In turn, `CCCCc1cccnc1` displayed a boiling point of 206 °C.
As to `Cc1cc(C)c(C)c(O)c1`, the boiling point is 230 °C, the log10 Koc (L/kg) was 3.61, the log10 vapour pressure (mmHg) is -2.42 and the melting point was found to be 93.5 °C.
`CC(C)[C@@H]1CC[C@@H](C)[C@H](O)C1`: the boiling point was 218 °C.
`O=C(O)c1ccccc1Nc1ccccc1` showed a melting point of 184 °C.
Same read-out and setting: in the case of `O=C1CNC(=S)N1` it was 230 °C.
With `C1CSCS1`, the boiling point was 175 °C and the melting point was -50 °C.
As to `C=CC[N+](=O)[O-]`, the boiling point is 128 °C.
Molecule `COc1cc2c(cc1OC)C(CCc1ccc(Cl)cc1)N(C)CC2` (stereo unspecified) had a melting point of 110 °C.
`COc1cc(CC#N)ccc1O` returned a melting point of 56.5 °C.
On the same count and under the same terms, in the case of `Oc1c(Cl)c(Cl)cc(Cl)c1Cl` it was 115 °C.
In turn, `CCCCCCC(=O)CC` showed a boiling point of 190 °C and a melting point of -8 °C.
Take `CCN(CC)CC(=O)Nc1c(C)cc(C)cc1C`: the melting point was 44 °C.
As for `CC/C=C\CC=O`, the boiling point turned out to be 121 °C.
The molecule `O=[N+]([O-])c1cccc([N+](=O)[O-])c1Cl` yielded a boiling point of 315 °C and a melting point of 88 °C.
`Clc1ccc2c(c1)Oc1cc(Cl)c(Cl)cc1O2` came in with a log10 Koa of 9.14, a log10 vapour pressure (mmHg) of -7.05 and a melting point of 162 °C.
In the case of `CCC(C)C(C)(C)C` (stereo unspecified), the log10 biodegradation half-life (days) worked out at 0.845.
`O=COCCCc1ccccc1` had a boiling point of 250 °C.
On to `CCCCCCCCCCCC(=O)OCC`, for which the boiling point was 271 °C and the melting point was -10 °C.
The molecule `O=C1OC2(OC=C(c3ccccc3)C2=O)c2ccccc21` (stereo unspecified) registered a melting point of 154 °C.
In the case of `O=C1CCc2ccccc2O1`, the boiling point turned out to be 272 °C and the melting point came to 25 °C.
`CC=CC(C)C(=O)O` (stereo unspecified) registered a boiling point of 199 °C.
`O=C1CCC1` gave a boiling point of 99 °C, a log10 vapour pressure (mmHg) of 1.63 and a melting point of -50.9 °C.
The molecule `Clc1cc(Cl)c(-c2ccc(Cl)c(Cl)c2)c(Cl)c1` gave a log10 Henry constant (atm·m³/mol) of -4.13.
Turning to `CCCCC(O)(Cn1cncn1)c1ccc(Cl)cc1Cl` (stereo unspecified), the log10 vapour pressure (mmHg) is -6.87 and the melting point was found to be 111 °C.
In turn, `C=C(Cl)Cl` showed a boiling point of 31.6 °C, a log10 Henry constant (atm·m³/mol) of -1.58, a log10 Koc (L/kg) of 1.81 and a log10 vapour pressure (mmHg) of 2.78. Further, the melting point was -122 °C and the ready biodegradability result is recorded as “not readily biodegradable”.
`O=c1[nH]c2ccccc2n1CCCN1CCC(n2c(=O)[nH]c3cc(Cl)ccc32)CC1` returned a melting point of 242 °C.
`CC(C)CCCC(C)(C)O` registered a boiling point of 173 °C.
Same read-out and setting: in the case of `CC(CCC(C)C)=NO` it was 196 °C; in that of `FC(F)(F)C1(F)C(F)(F)C(F)(C(F)(F)F)C(F)(F)C(F)(C(F)(F)F)C1(F)F` (stereo unspecified), 125 °C.
Regarding `OCCCBr`, the log10 vapour pressure (mmHg) is -1.
As to `CCC(=O)CC(C)=O`, the boiling point is 160 °C.
As to `O=c1cc(-c2ccccc2)oc2cc(O)ccc12`, the melting point was determined as 246 °C.
Take `CCCCCCCCCCCCF`: the log10 vapour pressure (mmHg) was -0.682.
Molecule `CC(=O)c1c(C)c[nH]c1C` displayed a melting point of 138 °C.
The molecule `CC(C#N)CCC#N` (stereo unspecified) yielded a boiling point of 263 °C, a log10 vapour pressure (mmHg) of -2.29 and a melting point of -45 °C.
`CC(C)COC(=O)C(C)Oc1ccc(Oc2ccc(Cl)cc2)cc1` (stereo unspecified) returned a melting point of 39.5 °C.
The molecule `O=C1OC(=O)C(F)(F)C(F)(F)C1(F)F` yielded a boiling point of 72 °C.
`OCCCc1ccncc1`: the boiling point turned out to be 289 °C and the melting point came out at 37 °C.
On the same counts, the results for `COB1OB(OC)OB(OC)O1` are 130 °C and 10 °C.
`Clc1ccc(Oc2c(Cl)cccc2Cl)cc1` came in with a log10 vapour pressure (mmHg) of -3.66.
`CCOc1ccc(NC(N)=O)cc1` returned a melting point of 174 °C.
As to `O=C(O)c1ccccc1S(=O)(=O)O`, the melting point is 141 °C and the ready biodegradability entry is reported as “not readily biodegradable”.
For the molecule `CC(N)=S`, the log10 Koc (L/kg) was found to be 0.78, the melting point stood at 116 °C and the ready biodegradability result was “not readily biodegradable”.
The molecule `C/C=C/CCCCCCCC` showed a boiling point of 194 °C and a melting point of -57.4 °C.
For the molecule `C=CCOC(=O)c1ccccc1C(=O)OCC=C`, the ready biodegradability entry is “readily biodegradable”.
For `CC1(N)CCCC1`, the boiling point turned out to be 121 °C.
In the case of `CCCCC1C(=O)NC(=O)N(C2CCCCC2)C1=O` (stereo unspecified), the melting point was 84 °C.
Molecule `CC(=O)c1c(F)c(F)c(F)c(F)c1F` had a melting point of 130 °C.
The same measure, in the same setting: in the case of `Nc1c(F)cc(F)cc1F` it was 35 °C.
`C=CCc1cccc(C)c1O` returned a boiling point of 232 °C.
Regarding `Cc1ccc(-c2cccc(C)c2)cc1`, the boiling point stood at 289 °C and the melting point amounted to 14.5 °C.
With `FC(Cl)C(F)(F)Cl` (stereo unspecified), the boiling point worked out at 29.5 °C, the log10 vapour pressure (mmHg) was determined as 2.79 and the melting point is -78 °C.
In the case of `CCCCCCC(=O)OCCC`, the boiling point is 208 °C and the melting point is -63.5 °C.
In turn, `CC(Cl)C(Cl)(Cl)C=O` (stereo unspecified) gave a boiling point of 164 °C.
Regarding `NC1=C(Cl)C(=O)c2ccccc2C1=O`, the log10 vapour pressure (mmHg) is -6.35 and the melting point was determined as 199 °C.
On the same counts, the results for `CC(C)C1CCC(Cc2ccc(Cl)cc2)C1(O)Cn1cncn1` (stereo unspecified) are -7.4 and 89 °C.
`CCOC(OCC)C(Cl)Cl` gave a boiling point of 184 °C.
For the molecule `CC1=C[C@H]2O[C@@H]3[C@H](O)C[C@](C)([C@@]2(CO)[C@H](O)C1=O)[C@]31CO1`, the melting point came to 152 °C.

Still in this data set, the particulars now being: fish.
The molecule `CCCCc1cc2ccccc2c2ccccc12` registered a log10 biotransformation half-life (days) of 0.29.
`FC(F)(Cl)Cl` displayed a log10 BCF of 0.79.
For the molecule `Clc1cc(-c2c(Cl)c(Cl)c(Cl)c(Cl)c2Cl)c(Cl)c(Cl)c1Cl`, the log10 biotransformation half-life (days) was determined as 2.68.
`Oc1c(Cl)c(Cl)cc(Cl)c1Cl` displayed a log10 BCF of 2.15 and a log10 biotransformation half-life (days) of -0.1.
Regarding `C=C(Cl)Cl`, the log10 BCF was determined as 1.11 and the log10 biotransformation half-life (days) is -0.72.

Source of the values: the OPERA property sets (Mansouri et al. 2018).
